This passage reports TGI and GI50 results from PubChem BioAssay (NCI).

Among the test systems are HCT-15 colon; SNB-19 CNS; SF-295 CNS; UACC-257 melanoma; CCRF-CEM leukemia; SK-MEL-5 melanoma; DU-145 prostate; LOX IMVI melanoma; K-562 leukemia; A498 renal.
Test in all cases: NCI tumour cell line growth inhibition, 48 h

The structures appear in SMILES notation. “And” between values parts separate entries of the source, which are not always exact repeats. Equal values may be shown once.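 96-well plates; 48 h exposure; 5 concentrations. Endpoints by linear interpolation between flanking doses. Not reached: highest tested concentration assigned. Abbreviation: GI50, concentration required for 50% inhibition of growth. Definition used: TGI = concentration required for complete inhibition of growth.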 Where only a bound is given, the exact number is not on record here.

Take `COc1ccc(N2C(=O)c3c4c(c5c([nH]c6ncccc65)c3C2=O)CCC(C(C)(C)C)C4)cc1` (configuration not stated): the TGI in the assay on HCT-15 colon, in the assay on SNB-19 CNS, with SF-295 CNS, in the assay on UACC-257 melanoma, with CCRF-CEM leukemia and in the assay with SK-MEL-5 melanoma was more than 100 µM throughout. This compound also yielded a TGI with DU-145 prostate of more than 100 µM.

Consider `O=C(CP(=O)(O)O)c1cccs1`, for which the TGI in the assay on HCT-15 colon, in the assay on SNB-19 CNS, in the assay with SF-295 CNS, in the assay with UACC-257 melanoma, in the assay on CCRF-CEM leukemia and with LOX IMVI melanoma was more than 100 µM in each case. Besides, the TGI in the assay on SK-MEL-5 melanoma, in the assay with K-562 leukemia and in the assay with A498 renal was more than 100 µM throughout.

Turning to `CCC(C(=O)O)c1ccc(OCc2ccccc2)cc1` (configuration not stated), the TGI in the assay with SNB-19 CNS, in the assay on SF-295 CNS, in the assay with UACC-257 melanoma, with CCRF-CEM leukemia, in the assay with LOX IMVI melanoma and in the assay with SK-MEL-5 melanoma was more than 100 µM in each case. The TGI with K-562 leukemia and with A498 renal was more than 100 µM throughout.

As to `COc1ccc(N[C@H](CSc2ccc(C)cc2)c2ccc(F)cc2)cc1`, the TGI in the assay on HCT-15 colon, with SNB-19 CNS, in the assay with SF-295 CNS, in the assay on UACC-257 melanoma, in the assay with CCRF-CEM leukemia and in the assay on LOX IMVI melanoma was more than 100 µM throughout. Also, the TGI in the assay on SK-MEL-5 melanoma, in the assay on DU-145 prostate and in the assay on K-562 leukemia was more than 100 µM each time.

With `CCSC1=CC(=O)c2nc3ccccc3c3ccnc1c23`, the TGI in the assay on HCT-15 colon was 7.37 µM; in the assay on SNB-19 CNS, more than 87.1 µM; with SF-295 CNS, 31 µM; in the assay on UACC-257 melanoma it was 4.19 µM; in the assay with CCRF-CEM leukemia, more than 25.9 µM; with LOX IMVI melanoma it was more than 36.1 µM. For the same compound, the TGI in the assay on DU-145 prostate was found to be 15.5 µM.

Regarding `CC(C)(C)N=c1n(C(C)(C)C)oc(=O)n1C(C)(C)C`, the TGI in the assay on HCT-15 colon, with SNB-19 CNS, in the assay on SF-295 CNS, in the assay on UACC-257 melanoma, in the assay with CCRF-CEM leukemia and in the assay on LOX IMVI melanoma was more than 100 µM throughout. The TGI with SK-MEL-5 melanoma, with K-562 leukemia and in the assay with A498 renal was more than 100 µM each time.

`COCOc1ccc(OC)cc1`: the TGI in the assay on HCT-15 colon, in the assay on SNB-19 CNS, in the assay on SF-295 CNS, with UACC-257 melanoma, in the assay on CCRF-CEM leukemia and in the assay with LOX IMVI melanoma was more than 100 µM throughout. In addition, the TGI with SK-MEL-5 melanoma, in the assay with K-562 leukemia and in the assay with A498 renal was more than 100 µM each time.

For the compound `CSC1CC2C(CC1(C)O)C2(C)C` (configuration not stated), the TGI in the assay on HCT-15 colon, in the assay with SNB-19 CNS, in the assay with UACC-257 melanoma, in the assay with CCRF-CEM leukemia, with LOX IMVI melanoma and in the assay with SK-MEL-5 melanoma was more than 100 µM in each case. The TGI with K-562 leukemia and in the assay on A498 renal was more than 100 µM throughout. Moreover, the GI50 in the assay with UACC-257 melanoma was 40.8 µM and > 100 µM; in the assay on CCRF-CEM leukemia, 49.3 µM and > 100 µM; in the assay on K-562 leukemia it was 49.7 µM and > 100 µM.

For the compound `CCC12C[N+]3([O-])CCc4c([nH]c5ccccc45)C(C(=O)OC)(c4cc5c(cc4OC)N(C)C4C(O)(C(=O)OC)C(OC(C)=O)C6(CC)C=CCN7CCC54C76)CC(C3)C1O2` (configuration not stated), the TGI in the assay with HCT-15 colon was 24.8 µM; with SNB-19 CNS, 11.9 µM; with SF-295 CNS, 1.86 µM; in the assay on UACC-257 melanoma it was 35.1 µM; in the assay on CCRF-CEM leukemia it was 6.87 µM; in the assay with LOX IMVI melanoma, 51.7 µM. In addition, the TGI stood at 12 µM in the assay on SK-MEL-5 melanoma, 6.28 µM in the assay with K-562 leukemia and 18 µM in the assay on A498 renal.

For `CN(C)C(CN)CC1=C(CC(CN)N(C)C)CCC1` (configuration not stated), the TGI with HCT-15 colon, in the assay on SNB-19 CNS, in the assay on SF-295 CNS, in the assay on UACC-257 melanoma, in the assay with CCRF-CEM leukemia and with LOX IMVI melanoma was more than 100 µM in each case. Moreover, the TGI in the assay on SK-MEL-5 melanoma, in the assay on K-562 leukemia and in the assay with A498 renal was more than 100 µM each time.

Turning to `CC(C)(C)C1=Cc2cc3cc(C(C)(C)C)[nH]c(=O)c3cc2S(=O)(=O)N1`, the TGI with SNB-19 CNS was more than 100 µM; in the assay with SF-295 CNS it was 94.4 µM; in the assay on UACC-257 melanoma, 58.7 µM; in the assay with CCRF-CEM leukemia it was 56.9 µM; in the assay with K-562 leukemia, more than 100 µM; with A498 renal it was more than 100 µM.

With `C/C(=N/NC(N)=S)c1ccc2ccccc2c1`, the TGI in the assay with HCT-15 colon, with SNB-19 CNS, in the assay with SF-295 CNS, in the assay with UACC-257 melanoma, in the assay with CCRF-CEM leukemia and with LOX IMVI melanoma was more than 100 µM each time. In addition, the TGI in the assay on SK-MEL-5 melanoma and in the assay with A498 renal was more than 100 µM each time.

On to `C/C(=C\c1ccccc1)C(=O)CCN1CCOCC1`, for which the TGI is 32.6 µM in the assay on HCT-15 colon; more than 62.1 µM in the assay with SNB-19 CNS; more than 100 µM with SF-295 CNS; 30.6 µM in the assay on UACC-257 melanoma; more than 67.2 µM in the assay with CCRF-CEM leukemia; 34.6 µM with LOX IMVI melanoma. Further, the values for the TGI in the assay with SK-MEL-5 melanoma, with K-562 leukemia and in the assay on A498 renal were more than 60.1 µM, more than 69.7 µM and more than 100 µM, respectively.

In the case of `CCOP(=O)(OCC)C1C(CO)OC(n2ccc(=O)[nH]c2=O)C1O` (configuration not stated), the TGI in the assay with HCT-15 colon, in the assay with SNB-19 CNS, in the assay on SF-295 CNS, in the assay on UACC-257 melanoma, in the assay with LOX IMVI melanoma and in the assay on SK-MEL-5 melanoma was more than 100 µM in each case. Also, the TGI in the assay on K-562 leukemia and in the assay on A498 renal was more than 100 µM throughout.

As for `CCOC(=O)C1=C(C(C)=O)CSC(c2ccccc2)=N1`, the TGI with HCT-15 colon, in the assay on SNB-19 CNS, in the assay with SF-295 CNS, with UACC-257 melanoma, in the assay with CCRF-CEM leukemia and in the assay on LOX IMVI melanoma was more than 100 µM throughout. Moreover, the TGI in the assay with SK-MEL-5 melanoma, in the assay with K-562 leukemia and in the assay on A498 renal was more than 100 µM in each case.
